Our source for the IC50 values is patent publication US20240158379A1, “NOVEL BENZOFURAN, BENZOTHIOPHENE, AND INDOLE ANALOGS THAT INHIBIT THE FORMATION OF TAU OLIGOMERS AND THEIR METHOD OF USE” (OLIGOMERIX INC., priority 2016, published 2024).

The IC50 is the concentration needed to halve the response being measured.

This experiment has as its target recombinant human tau 4R2N (Homo sapiens (Human), UniProt P10636). Briefly: AlphaLisa Assay (ALA), primary screen for inhibition of tau oligomer formation. Format: biochemical. Conditions: tau target 300 nM, Tris-HCl pH 7.4, 4 hours room temperature, compound 0.098 uM-50 uM. The text has this:
Bacterial recombinant human tau 4R2N (the largest isoform of tau in the central nervous system, 441 amino acids in length, Seq ID 1) constructs with either 6×-His or StrepII N-terminal epitope tags were purified from bacterial lysate using denaturing conditions to prepare tau in its monomeric form.
ALA Assay: AlphaLisa Assay (ALA) was used as a primary screen for identifying compounds that inhibit tau oligomer formation. It is a bead based assay that only gives signal when the beads are in close proximity to each other. When the tau monomer (target) is incubated it forms higher order aggregates (dimer, trimer, tetramer, etc) so that when the donor and acceptor beads bind to the epitope tags of tau they are in close proximity and generate signal.
Tau target (equal mixture of each construct at 300 nM) was prepared in buffer (Tris-HCl pH 7.4) and was incubated in 96-well plates at room temperature for 4 hours with vehicle control (DMSO) and a dose range of a compound of the disclosure (0.098 uM-50 uM). AlphaLisa acceptor beads & donor beads with ligands to the epitope tags (Perkin Elmer) were diluted (final 20 ug/mL per bead) in bead buffer (25 mM HEPES pH 7.4, 100 mM NaCl, 0.1% Tween-20), added to the wells and incubated 1 hour at room temperature. The positive control (non-incubated target) & blank (no tau) were prepared and mixed with beads in bead buffer and the plate was read immediately using the EnVision plate reader (Perkin Elmer).
A general note: Alpha assays give light when donor and acceptor beads are brought close together.

Sequence of recombinant human tau 4R2N (P10636 other isoform, or with tags, fused parts or gaps): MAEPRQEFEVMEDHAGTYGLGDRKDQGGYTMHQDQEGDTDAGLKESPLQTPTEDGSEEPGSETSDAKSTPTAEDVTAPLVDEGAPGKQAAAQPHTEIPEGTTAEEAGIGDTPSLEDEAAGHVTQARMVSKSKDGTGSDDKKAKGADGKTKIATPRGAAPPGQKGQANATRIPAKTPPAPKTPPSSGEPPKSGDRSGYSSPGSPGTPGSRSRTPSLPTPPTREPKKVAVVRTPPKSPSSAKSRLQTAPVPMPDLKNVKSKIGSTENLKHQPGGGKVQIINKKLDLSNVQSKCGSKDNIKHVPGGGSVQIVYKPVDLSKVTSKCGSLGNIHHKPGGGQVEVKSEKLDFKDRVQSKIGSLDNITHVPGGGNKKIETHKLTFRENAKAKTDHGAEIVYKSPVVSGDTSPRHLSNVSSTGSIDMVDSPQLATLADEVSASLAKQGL

With `CC(=O)CCc1oc2ccc(-c3cccs3)cc2c1-c1ccc(C)o1` [Example 8, 4-(3-(5-Methylfuran-2-yl)-5-(thiophen-2-yl)benzofuran-2-yl)butan-2-one], the IC50 was 1.31 µM. For `CC(=O)CCc1oc2ccc(Br)cc2c1CCC(C)C` [Example 9, 4-[5-Bromo-3-(3-methyl-butyl)-benzofuran-2-yl]-butan-2-one] the value was > 10 µM; for `Cc1ccc(-c2c(CCC(=O)O)oc3ccc(Br)cc23)o1` [Example 12, 3-[5-Bromo-3-(5-methyl-furan-2-yl)-benzofuran-2-yl]-propionic acid], 6.09 µM; for `Cc1ccc(-c2c(CCC(=O)N3CCC(O)CC3)oc3ccc(Br)cc23)o1` [Example 13, 3-[5-Bromo-3-(5-methyl-furan-2-yl)-benzofuran-2-yl]-1-(4-hydroxy-piperidin-1-yl)-propan-1-one], 5.78 µM. The same measure for `CC(=O)CCc1oc2ccc(-c3ccncc3)cc2c1-c1ccc(Cl)s1` [Example 18, 4-(3-(5-Chlorothiophen-2-yl)-5-(pyridin-4-yl)benzofuran-2-yl)butan-2-one]: 7.67 µM. As for `COc1cc(-c2ccc3oc(CCC(C)=O)c(-c4ccc(Cl)s4)c3c2)ccn1` [Example 19, 4-(3-(5-chlorothiophen-2-yl)-5-(2-methoxypyridin-4-yl)benzofuran-2-yl)butan-2-one], the IC50 worked out at 20.8 µM.

As for `CC(=O)CCc1oc2ccc(-c3ccc(Cl)nc3)cc2c1-c1ccc(Cl)s1` [Example 20, 4-(5-(6-Chloropyridin-3-yl)-3-(5-chlorothiophen-2-yl)benzofuran-2-yl)butan-2-one], the IC50 worked out at 15.4 µM. For `CC(=O)CCc1oc2cc(Br)ccc2c1-c1ccc(C)o1` [Example 21, 4-(6-Bromo-3-(5-methylfuran-2-yl)benzofuran-2-yl)butan-2-one] the value was 1.17 µM; for `CC(=O)CCc1oc2cc(-c3ccncc3)ccc2c1-c1ccc(C)o1` [Example 22, 4-(3-(5-Methylfuran-2-yl)-6-(pyridin-4-yl)benzofuran-2-yl)butan-2-one], 3.42 µM. The same measure for `CC(=O)CCc1oc2ccc(Br)cc2c1CCc1ccc(C)cc1` [Example 26, 4-(5-Bromo-3-(2-p-tolylethyl)benzofuran-2-yl)butan-2-one]: > 10 µM.

Take `COc1ccc(-c2ccc3c(-c4ccc(C)o4)c(CCC(C)=O)oc3c2)cn1` [Example 28, 4-(6-(6-Methoxypyridin-3-yl)-3-(5-methylfuran-2-yl)benzofuran-2-yl)butan-2-one]: the half-maximal inhibitory concentration (IC50) was determined as 2.48 µM.
